In patent US20200255844A1, “MULTIPLEXED RECEPTOR-LIGAND INTERACTION SCREENS” (THE REGENTS OF THE UNIVERSITY OF CALIFORNIA, priority 2017, published 2020):

Legend:
Format in all cases: cell-based, mouse
MOR5-1 = assay: High-throughput multiplexed odorant screening (Smell-seq), 96-well, barcode RNA-seq readout; conditions: OR MOR5-1; pair called as hit, FDR=1%
Experimental: (§1) 10. High-Throughput Odorant Screening
(§2) The OR library cell line was thawed from a liquid nitrogen frozen stock into a T-225 flask (Corning) three days before seeding into a 96-well plate for screening. The library was seeded at 6,666 cells per well in 100 ul of DMEM. 24 hours later a working concentration of 1 ug/ml of doxycycline in DMEM was added to the wells. 24 hours after induction, the media was removed from each plate and replaced with 25 ul of odorant diluted in OptiMEM. Each odor was added at three different concentrations (10 uM, 100 uM, 1 mM) in triplicate with the same amount of final DMSO (1%). Each plate contained two control odorants at a three concentration (10 uM, 100 uM, 1 mM) in triplicate and three wells containing 1% DMSO dissolved in media. The library was incubated with odorants for three hours in a cell culture incubator with the lids removed.
(§3) After odor incubation, media was pipetted out of the plates and cells were lysed by adding 25 uL of ice-cold Cells-to-cDNA II Lysis Buffer (Thermo Fisher) and pipetting up and down to homogenize and lyse cells. The lysate was then heated to 75° C. for 15 minutes and flash frozen with liquid nitrogen and kept at −80 C until further processing. Then 0.5 uL DNase I (New England Biolabs) was added to lysate, and incubated at 37° C. for 15 minutes. To anneal the RT primer, 5 ul of lysate from each well was combined with 2.5 ul of 10 mM dNTPs (New England Biosciences), 1 ul of 2 uM gene specific RT primer (OL003), and 1.5 ul of H2O. The reaction was heated to 65° C. for 5 min and cooled back down to 0° C. After annealing, 1 ul of M-MuLV Reverse Transcriptase (Enzymatics), 1 ul of buffer, and 0.25 ul of RNase Inhibitor (Enzymatics) were added to each reaction. Reactions were incubated at 42° C. for 60 min and the RT enzyme was heat inactivated at 85° C. for 10 min.
(§4) For each batch, qPCR was performed on a few wells (OL005F and OL013) with SYBR FAST qPCR Mastermix to determine the number of cycles necessary for PCR based library preparation. The reaction and cycling conditions are optimized as follows: 95° C. for 3 minutes, 40 cycles of 95° C. for 3 seconds and 60° C. for 20 seconds. After qPCR, 5 ul of each RT reaction was combined with 0.4 ul of 10 uM primers containing sequencing adaptors (OL005F and OL013), 10 ul of NEB-Next Q5 Mastermix (New England Biosciences) and 4.2 ul H2O, the PCR was carried out according to the manufacturer's protocol. The forward primer contains the P7 adaptor sequence and an index identifying the well in the assay and the reverse primer contains the P5 adaptor sequence and an index identifying the plate in the assay. PCR products were pooled together by plate and purified with the DNA Clean and Concentrator Kit. Library concentrations were quantified using a Tape Station 2200 and a Qubit (Thermo Fisher). The libraries were sequenced with two index reads and a single end 75-bp read on a NextSeq 500 in high-output mode (Illumina).
(§5) 11. Analysis of Next-Generation Sequencing Data
(§6) Samples were identified via indexing by their PCR indexes adapters unique for each well (5′ end) and unique for each plate (3′ end). The well barcodes followed the 7 bp indexing scheme in (Illumina Sequencing Library Preparation for Highly Multiplexed Target Capture and Sequencing Matthias Meyer, Martin Kircher, Cold Spring Harb Protoc; 2010; doi:10.1101/pdb.prot5448). The plate indexing scheme followed the Illumina indexing scheme. Sequencing data was demultiplexed and 15 bp barcode sequences were counted with only exact matches by custom python and bash scripts.
(§7) 12. Statistical Methods for Calling Hits
(§8) Count data was then analyzed using the differential expression package EdgeR. To filter out ORs with low representation, we set a cutoff that an OR had to contain at least 0.5% of the reads from more than 399 of the 1954 test samples. This filtered out 3 of 42 ORs which were underrepresented in the cell library (MOR172-1, MOR176-1 and MOR181-1). […]

MOR13-1 = assay: as above; conditions: OR MOR13-1; pair called as hit, FDR=1%
Description: We find that chemicals with similar features activate similar sets of ORs, including those receptors we deorphanize in this study. For example, the previously orphan MOR13-1 is activated by four chemicals with polar groups attached, in three cases, to stiff non-rotatable scaffolds. Another example is, MOR19-1, which has clear affinity for the salicylate functional group. To better understand how chemical similarity relates to receptor activation without relying on incomplete and sometimes arbitrary chemical descriptors, we used a previously validated computational autoencoder to represent each chemical in a ˜292 dimensional latent space, allowing nearly lossless compression of chemical structure (Data not shown). We find chemicals that activate the same OR tend to cluster distinctly (FIG. 10D, FIG. 20). […] Many, but not all of the receptors. […] Understanding the space of chemicals that activates each OR establishes the groundwork for prediction of novel odorant-OR interactions.
as §1, §2
After odor incubation, media was pipetted out of the plates and cells were lysed by adding 25 uL of ice-cold Cells-to-cDNA II Lysis Buffer (Thermo Fisher) and pipetting up and down to homogenize and lyse cells. The lysate was then heated to 75° C. for 15 minutes and flash frozen with liquid nitrogen and kept at −80 C until further processing. Then 0.5 uL DNase I (New England Biolabs) was added to lysate, and incubated at 37° C. for 15 minutes. […]
For each batch, qPCR was performed on a few wells (OL005F and OL013) with SYBR FAST qPCR Mastermix to determine the number of cycles necessary for PCR based library preparation. […] Library concentrations were quantified using a Tape Station 2200 and a Qubit (Thermo Fisher). The libraries were sequenced with two index reads and a single end 75-bp read on a NextSeq 500 in high-output mode (Illumina). […]

MOR139-1 = assay: High-throughput multiplexed odorant screening (Smell-seq), barcode RNA-seq readout; conditions: OR MOR139-1; pair called as hit, FDR=1%
Description: (§9) We subsequently screened 182 odorants at three concentrations in triplicate against the OR cell library, the equivalent of ˜85,000 individual luciferase assays including controls (FIG. 10A, Table 2). Each 96-well plate in the assay contained positive control odorants and solvent DMSO wells for normalization (FIG. 16). We used the EdgeR software package to determine differentially responsive ORs based on a negative binomial model of barcode counts. We found 114 OR-odorant interactions (out of 7,200 possible), 81 of which are novel, and 24 interactions with 15 orphan receptors (FIG. 10C, FIG. 17 and Supplementary Table 4) (FDR=1%; Benjamini-Hochberg correction). Overall 28 of 39 receptors were activated by at least one odorant, and 68 of 182 odorants activated at least one OR (Table 4). We chose 37 interactions of at least 1.2 fold induction to test individually with a previously developed transient OR assay that has several important differences (FIG. 18). Of the 28 interactions called as hits at an FDR of 1%, 21 of them replicated in this orthogonal system (FIG. 17). […] Conversely, we also detect 14 interactions that this previous study tested, but called negative.

MOR23-1 = assay: as above; conditions: OR MOR23-1; pair called as hit, FDR=1%
Description: as §9

MOR170-1 = assay: High-throughput multiplexed odorant screening (Smell-seq), 96-well, barcode RNA-seq readout; conditions: OR MOR170-1; pair called as hit, FDR=1%
Experimental: as §1, §2, §3, §4, §5, §6, §7, §8

MOR25-1 = assay: High-throughput multiplexed odorant screening (Smell-seq), barcode RNA-seq readout; conditions: OR MOR25-1; pair called as hit, FDR=1%
Description: as §9

MOR30-1 = assay: as above; conditions: OR MOR30-1; pair called as hit, FDR=1%
Description: as §9

MOR131-1 = assay: as above; conditions: OR MOR131-1; pair called as hit, FDR=1%
Description: as §9

MOR189-1 = assay: as above; conditions: OR MOR189-1; pair called as hit, FDR=1%
Description: as §9

Olfr62 = assay: as above; conditions: OR Olfr62; pair called as hit, FDR=1%
Description: as §9

## CCCCC/C=C\CCC=O [cis-4-Decenal]
MOR5-1
  Minimum Activating Concentration: 1000 µM

## O=C(O)C1CCC1 [Cyclobutanecarboxylic acid]
MOR13-1
  Minimum Activating Concentration: 1000 µM

## CCCC=O [Butanal]
MOR139-1
  Minimum Activating Concentration: 1000 µM

## CCCCCCC(Br)C(=O)O (centres unmarked) [2-Bromooctanoic acid]
MOR5-1
  Minimum Activating Concentration: 1000 µM
MOR23-1
  Minimum Activating Concentration: 1000 µM

## CCC(C)c1nccnc1OC (centres unmarked) [2-sec-Butyl-3-methoxypyrazine]
MOR139-1
  Minimum Activating Concentration: 1000 µM

## CC/C=C\CCCCC=O [cis-6-Nonenal]
MOR5-1
  Minimum Activating Concentration: 1000 µM

## CC(C)=C1CC[C@@H](C)CC1=O [(+)-Pulegone]
MOR139-1
  Minimum Activating Concentration: 1000 µM

## CCCCC(Br)C(=O)O (centres unmarked) [2-Bromohexanoic acid]
MOR170-1
  Minimum Activating Concentration: 1000 µM
MOR5-1
  Minimum Activating Concentration: 1000 µM

## CCCCCCCCCC(=O)O [Decanoic-Acid]
MOR5-1
  Minimum Activating Concentration: 1000 µM
MOR25-1
  Minimum Activating Concentration: 100 µM
MOR30-1
  Minimum Activating Concentration: 10 µM

## C/C=C(\C)C=O [trans-2-Methyl-2-butenal (2MB)]
MOR13-1
  Minimum Activating Concentration: 1000 µM

## C=C(C)[C@@H]1CC[C@@H](C)C(=O)C1 [(+)-Dihydrocarvone]
MOR139-1
  Minimum Activating Concentration: 1000 µM

## CCCCCCO [1-hexanol]
MOR131-1
  Minimum Activating Concentration: 1000 µM

## CCCCCCC=O [Heptanal]
MOR23-1
  Minimum Activating Concentration: 1000 µM

## O=C1CCOc2ccccc21 [4-Chromanone]
MOR170-1
  Minimum Activating Concentration: 100 µM
MOR139-1
  Minimum Activating Concentration: 1000 µM
MOR189-1
  Minimum Activating Concentration: 1000 µM

## CCCCCCCCCC=O [Decanal]
MOR25-1
  Minimum Activating Concentration: 1000 µM
MOR30-1
  Minimum Activating Concentration: 100 µM

## COc1cc(C=O)ccc1O [Vanillin]
MOR170-1
  Minimum Activating Concentration: 1000 µM

## O=Cc1ccc2c(c1)OCO2 [Piperonal]
MOR170-1
  Minimum Activating Concentration: 1000 µM
Olfr62
  Minimum Activating Concentration: 1000 µM

## C=C(C)C1CC=C(C)C(=O)C1 (single isomer, unassigned; (-)) [(−)-Carvone]
MOR25-1
  Minimum Activating Concentration: 1000 µM

## CCCCCC1=C(C)CCC1=O [Dihydrojasmone]
MOR139-1
  Minimum Activating Concentration: 1000 µM

## CCCCCCCCC(=O)O [Nonanoic Acid]
MOR5-1
  Minimum Activating Concentration: 100 µM
MOR23-1
  Minimum Activating Concentration: 1000 µM
MOR25-1
  Minimum Activating Concentration: 1000 µM
MOR30-1
  Minimum Activating Concentration: 100 µM

## C/C=C/C(=O)C1=C(C)CCCC1(C)C [beta-Damascone]
MOR189-1
  Minimum Activating Concentration: 1000 µM

## OCC=Cc1ccccc1 [Cinnamyl alcohol]
MOR170-1
  Minimum Activating Concentration: 1000 µM

## O=C(O)CCCCCBr [6-Bromohexanoic acid]
MOR5-1
  Minimum Activating Concentration: 1000 µM
MOR23-1
  Minimum Activating Concentration: 100 µM

## CCc1ccc(O)cc1 [4-Ethylphenol]
MOR170-1
  Minimum Activating Concentration: 1000 µM

## CCCCCCCC=O [Octanal]
MOR5-1
  Minimum Activating Concentration: 1000 µM
MOR23-1
  Minimum Activating Concentration: 100 µM

## CC(=O)/C=C/C1=C(C)CCCC1(C)C [beta-ionone]
MOR139-1
  Minimum Activating Concentration: 1000 µM
MOR189-1
  Minimum Activating Concentration: 1000 µM

## C=CCc1ccc(OC)c(OC)c1 [Eugenol methyl ether]
MOR170-1
  Minimum Activating Concentration: 10 µM
MOR139-1
  Minimum Activating Concentration: 1000 µM
MOR189-1
  Minimum Activating Concentration: 1000 µM

## C=CCc1ccc(O)c(OC)c1 [Eugenol]
MOR139-1
  Minimum Activating Concentration: 1000 µM

## CC(=O)OCCc1ccccc1 [2-Phenethyl acetate]
MOR170-1
  Minimum Activating Concentration: 1000 µM

## c1ccc2ncccc2c1
MOR170-1
  Minimum Activating Concentration: 100 µM
MOR139-1
  Minimum Activating Concentration: 100 µM
MOR189-1
  Minimum Activating Concentration: 1000 µM
Olfr62
  Minimum Activating Concentration: 1000 µM

## CNc1ccccc1C(=O)OC [Dimethyl anthranilate]
MOR170-1
  Minimum Activating Concentration: 10 µM
MOR139-1
  Minimum Activating Concentration: 1000 µM

## CC(=O)OCc1ccccc1 [Benzyl acetate]
MOR170-1
  Minimum Activating Concentration: 1000 µM

## O=C1Cc2ccccc2O1 [2-coumaranone]
Olfr62
  Minimum Activating Concentration: 1000 µM

## COc1ccc(C=O)cc1 [Anisaldehyde]
MOR170-1
  Minimum Activating Concentration: 1000 µM

## O=C(c1ccccc1)c1ccccc1 [Benzophenone]
Olfr62
  Minimum Activating Concentration: 1000 µM

## CCCCCCCCC=O [Nonanal]
MOR5-1
  Minimum Activating Concentration: 1000 µM
MOR23-1
  Minimum Activating Concentration: 1000 µM
MOR30-1
  Minimum Activating Concentration: 1000 µM

## CC(C)=CCC/C(C)=C\COC(=O)C(C)C [Neryl isobutyrate]
MOR139-1
  Minimum Activating Concentration: 1000 µM
